Converted amounts (≈) assume the structure as drawn. The source made the active and inactive calls. No cut-off for these calls is given here.
How the values were obtained:
[1] = test system: Enterococcus hirae; assay: Antimicrobial activity against Enterococcus hirae ATCC 10541 after 18 hrs by twofold dilution technique; assay type: functional; settings: ATCC 10541, 18 h
[2] = test system: Staphylococcus aureus; assay: microbe, parasite or virus in culture; settings: ATCC 25923, 18 h, read-out: DIZ
Description: Antimicrobial activity against Staphylococcus aureus ATCC 25923 at 5 ug after 18 hrs by disk diffusion method

[3] = test system: Staphylococcus aureus; assay: Antimicrobial activity against Methicillin susceptible Staphylococcus aureus 239/7 by twofold dilution technique; assay type: functional
[4] = test system: Staphylococcus epidermidis; assay: Antimicrobial activity against Staphylococcus epidermidis ATCC 12228 by twofold dilution technique; assay type: functional
[5] = test system: Staphylococcus aureus; assay: Antimicrobial activity against methicillin-resistant Staphylococcus aureus 136/6 by twofold dilution technique; assay type: functional
[6] = test system: Staphylococcus epidermidis; assay: microbe, parasite or virus in culture; settings: ATCC 12228, 18 h, read-out: DIZ
Description: Antimicrobial activity against Staphylococcus epidermidis ATCC 12228 at 5 ug after 18 hrs by disk diffusion method

[7] = test system: Bacillus cereus; assay: Antimicrobial activity against Bacillus cereus ATCC 11778 after 18 hrs by twofold dilution technique; assay type: functional; settings: ATCC 11778, 18 h
[8] = test system: Micrococcus luteus; assay: Antimicrobial activity against Micrococcus luteus ATCC 10240 by twofold dilution technique; assay type: functional
[9] = test system: Staphylococcus aureus; assay: Antimicrobial activity against Methicillin susceptible Staphylococcus aureus 242/7 by twofold dilution technique; assay type: functional
[10] = test system: Micrococcus luteus; assay: Antimicrobial activity against Micrococcus luteus ATCC 10240 at 5 ug after 18 hrs by disk diffusion method; assay type: functional; settings: ATCC 10240, 18 h, read-out: DIZ
[11] = test system: Staphylococcus aureus; assay: Antimicrobial activity against methicillin-resistant Staphylococcus aureus 146/6 by twofold dilution technique; assay type: functional
[12] = test system: Staphylococcus aureus; assay: microbe, parasite or virus in culture; settings: ATCC 29213, 18 h, read-out: DIZ
Description: Antimicrobial activity against Staphylococcus aureus ATCC 29213 at 5 ug after 18 hrs by disk diffusion method

[13] = test system: Staphylococcus aureus; assay: Antimicrobial activity against Staphylococcus aureus ATCC 29213 after 18 hrs by twofold dilution technique; assay type: functional; settings: ATCC 29213, 18 h
[14] = test system: Staphylococcus aureus; assay: Antimicrobial activity against methicillin-resistant Staphylococcus aureus 140/6 by twofold dilution technique; assay type: functional
[15] = test system: Enterococcus hirae; assay: Antimicrobial activity against Enterococcus hirae ATCC 10541 at 5 ug after 18 hrs by disk diffusion method; assay type: functional, organism-based
[16] = test system: Bacillus subtilis; assay: Antimicrobial activity against Bacillus subtilis ATCC 6633 after 18 hrs by twofold dilution technique; assay type: functional; settings: ATCC 6633, 18 h
[17] = test system: Staphylococcus aureus; assay: Antimicrobial activity against Methicillin susceptible Staphylococcus aureus 237/7 by twofold dilution technique; assay type: functional
[18] = test system: Staphylococcus aureus; assay: Antimicrobial activity against methicillin-resistant Staphylococcus aureus 141/6 by twofold dilution technique; assay type: functional
[19] = test system: Staphylococcus aureus; assay: Antimicrobial activity against methicillin-resistant Staphylococcus aureus 144/6 by twofold dilution technique; assay type: functional
[20] = test system: Staphylococcus aureus; assay: Antimicrobial activity against methicillin-resistant Staphylococcus aureus 200/7 by twofold dilution technique; assay type: functional
[21] = test system: Staphylococcus aureus; assay: Antimicrobial activity against Methicillin susceptible Staphylococcus aureus 238/7 by twofold dilution technique; assay type: functional
[22] = test system: Staphylococcus aureus; assay: Antimicrobial activity against Methicillin susceptible Staphylococcus aureus 213/7 by twofold dilution technique; assay type: functional
[23] = test system: Micrococcus luteus; assay: Antimicrobial activity against Micrococcus luteus ATCC 9341 after 18 hrs by twofold dilution technique; assay type: functional; settings: ATCC 9341, 18 h
[24] = test system: Staphylococcus aureus; assay: Antimicrobial activity against methicillin-resistant Staphylococcus aureus 217/7 by twofold dilution technique; assay type: functional
[25] = test system: Staphylococcus aureus; assay: Antimicrobial activity against Methicillin susceptible Staphylococcus aureus 212/7 by twofold dilution technique; assay type: functional
[26] = test system: Staphylococcus aureus; assay: Antimicrobial activity against Methicillin susceptible Staphylococcus aureus 206/7 by twofold dilution technique; assay type: functional
[27] = test system: Staphylococcus aureus; assay: Antimicrobial activity against methicillin-resistant Staphylococcus aureus 143/6 by twofold dilution technique; assay type: functional
[28] = test system: Staphylococcus aureus; assay: Antimicrobial activity against methicillin-resistant Staphylococcus aureus 236/7 by twofold dilution technique; assay type: functional
[29] = test system: Micrococcus luteus; assay: Antimicrobial activity against Micrococcus luteus ATCC 9341 at 5 ug after 18 hrs by disk diffusion method; assay type: functional; settings: ATCC 9341, 18 h, read-out: DIZ
[30] = test system: Staphylococcus aureus; assay: Antimicrobial activity against methicillin-resistant Staphylococcus aureus 218/7 by twofold dilution technique; assay type: functional
[31] = test system: Bacillus cereus; assay: Antimicrobial activity against Bacillus cereus ATCC 11778 at 5 ug after 18 hrs by disk diffusion method; assay type: functional; settings: ATCC 11778, 18 h, read-out: DIZ
[32] = test system: Staphylococcus aureus; assay: microbe, parasite or virus in culture; settings: NCTC 4163, 18 h, read-out: DIZ
Description: Antimicrobial activity against Staphylococcus aureus NCTC 4163 at 5 ug after 18 hrs by disk diffusion method

[33] = test system: Staphylococcus aureus; assay: Antimicrobial activity against Staphylococcus aureus ATCC 6538 after 18 hrs by twofold dilution technique; assay type: functional; settings: ATCC 6538, 18 h
[34] = test system: Staphylococcus aureus; assay: Antimicrobial activity against Methicillin susceptible Staphylococcus aureus 207/7 by twofold dilution technique; assay type: functional
[35] = test system: Bacillus subtilis; assay: microbe, parasite or virus in culture; settings: ATCC 6633, 18 h, read-out: DIZ
Description: Antimicrobial activity against Bacillus subtilis ATCC 6633 at 5 ug after 18 hrs by disk diffusion method

[36] = test system: Staphylococcus aureus; assay: Antimicrobial activity against Staphylococcus aureus ATCC 25923 after 18 hrs by twofold dilution technique; assay type: functional; settings: ATCC 25923, 18 h
[37] = test system: Staphylococcus aureus; assay: Antimicrobial activity against Methicillin susceptible Staphylococcus aureus 243/7 by twofold dilution technique; assay type: functional
[38] = test system: Staphylococcus aureus; assay: Antimicrobial activity against Methicillin susceptible Staphylococcus aureus 208/7 by twofold dilution technique; assay type: functional
[39] = test system: Staphylococcus aureus; assay: microbe, parasite or virus in culture; settings: ATCC 6538, 18 h, read-out: DIZ
Description: Antimicrobial activity against Staphylococcus aureus ATCC 6538 at 5 ug after 18 hrs by disk diffusion method

[40] = test system: Staphylococcus aureus; assay: Antimicrobial activity against Staphylococcus aureus NCTC 4163 after 18 hrs by twofold dilution technique; assay type: functional; settings: NCTC 4163, 18 h

## O=C(O)c1cn(C2CC2)c2cc(N3CCNCC3)c(F)cc2c1=O [CIPROFLOXACIN]
[1]
  MIC: 0.5 µg/mL (≈ 1.51 µM)
[2]
  zone of inhibition at 5 µg/disc: 26 mm
[3]
  MIC: 0.5 µg/mL (≈ 1.51 µM)
[4]
  MIC: 4 µg/mL (≈ 12.1 µM)
[5]
  MIC: > 8 µg/mL
[6]
  zone of inhibition at 5 µg/disc: 30 mm
[7]
  MIC: 1 µg/mL (≈ 3.02 µM)
[8]
  MIC: 0.5 µg/mL (≈ 1.51 µM)
[9]
  MIC: 0.5 µg/mL (≈ 1.51 µM)
[10]
  zone of inhibition at 5 µg/disc: 24 mm
[11]
  MIC: > 8 µg/mL
[12]
  zone of inhibition at 5 µg/disc: 22 mm
[13]
  MIC: 0.5 µg/mL (≈ 1.51 µM)
[14]
  MIC: > 8 µg/mL
[15]
  diameter of the inhibition zone (DIZ): inactive
[16]
  MIC: 2 µg/mL (≈ 6.04 µM)
[17]
  MIC: 4 µg/mL (≈ 12.1 µM)
[18]
  MIC: > 8 µg/mL
[19]
  MIC: > 8 µg/mL
[20]
  MIC: > 8 µg/mL
[21]
  MIC: 0.5 µg/mL (≈ 1.51 µM)
[22]
  MIC: 0.5 µg/mL (≈ 1.51 µM)
[23]
  MIC: 0.5 µg/mL (≈ 1.51 µM)
[24]
  MIC: > 8 µg/mL
[25]
  MIC: 0.5 µg/mL (≈ 1.51 µM)
[26]
  MIC: 2 µg/mL (≈ 6.04 µM)
[27]
  MIC: > 8 µg/mL
[28]
  MIC: 1 µg/mL (≈ 3.02 µM)
[29]
  zone of inhibition at 5 µg/disc: 22 mm
[30]
  MIC: 4 µg/mL (≈ 12.1 µM)
[31]
  zone of inhibition at 5 µg/disc: 20 mm
[32]
  zone of inhibition at 5 µg/disc: 26 mm
[33]
  MIC: < 0.125 µg/mL
[34]
  MIC: 0.5 µg/mL (≈ 1.51 µM)
[35]
  zone of inhibition at 5 µg/disc: 40 mm
[36]
  MIC: 0.5 µg/mL (≈ 1.51 µM)
[37]
  MIC: 0.5 µg/mL (≈ 1.51 µM)
[38]
  MIC: 0.5 µg/mL (≈ 1.51 µM)
[39]
  zone of inhibition at 5 µg/disc: 28 mm
[40]
  MIC: 0.5 µg/mL (≈ 1.51 µM)
